Values after ≈ are worked out from the molar mass of the structure shown. Where two headings read alike, the source gives them in different places.
Tests used:
C-Raf = biological target: T1, C-Raf (Homo sapiens, UniProt P04049, Y340E/Y341E); assay: In Vitro Raf Activity Determination (Alpha Screen, phosphorylation of kinase dead MEK1); type: biochemical
T1 construct: His tag (implied by nickel chromatography) and/or StrepII tag; made in house; host or cells: Sf9 insect cells (baculovirus) for CRAF and h14-3-3 zeta; E. coli for MEK1
Text: CRAF cDNA was subcloned as full length protein, with Y340E and Y341E activating mutations, into a baculovirus expression vector for Sf9 insect cell expression. h14-3-3 zeta cDNA was subcloned into a baculovirus expression vector for SF9 insect cell expression. Sf9 cells co-expressing both proteins were lysed and subjected to immobilized nickel chromatography and eluted with Imidazole. A second column (StrepII binding column) was used and eluted with desthiobiotin. Protein Tags were removed using Prescission enzyme and the protein was further purified using a flowthrough step to remove tags.
C-Raf TR refers to a truncated C-Raf protein, a Δ1-324 deletion mutant. C-Raf FL refers to the full-length C-Raf protein.
Full length MEK1 with an inactivating K97R ATP binding site mutation is utilized as a RAF substrate. The MEK1 cDNA was subcloned with an N-terminal (his)6 tag into a vector for E. Coli expression. The MEK1 substrate was purified from E. Coli lysate by nickel affinity chromatography followed by anion exchange. The final MEK1 preparation was biotinylated (Pierce EZ-Link Sulfo-NHS-LC-Biotin) and concentrated.
Assay Materials: Assay buffer is 50 mM Tris, pH 7.5, 15 mM MgCl2, 0.01% Bovine Serum Albumin (BSA) and 1 mM dithiothreitol (DTT); Stop buffer is 60 mM ethylenediaminetetraacetic acid (EDTA) and 0.01% Tween® 20; b-Raf (V600E), active; biotinylated Mek, kinase dead; Alpha Screen detection kit (available from PerkinElmer™ #6760617R); Anti phospho-MEK1/2 (available from Cell Signaling Technology, Inc. #9121); 384 well low volume assay plates (White Greiner® plates).
Assay conditions: b-Raf (V600E) approximately 4 pM; c-Raf approximately 4 nM; biotinylated Mek, kinase dead approximately 10 nM; ATP 10 μM for BRAF (V600E) and 1 μM for CRAF; Pre-incubation time with compounds 60 minutes at room temperature; Reaction time 1 or 3 hours at room temperature.
Assay protocol: Raf and biotinylated Mek (kinase dead) were combined at 2× final concentrations in assay buffer (50 mM Tris, pH 7.5, 15 mM MgCl2, 0.01% BSA and 1 mM DTT) and dispensed […] per well in assay plates (Greiner white 384 well assay plates #781207) containing […] of 40× of a Raf kinase inhibitor test compound diluted in 100% DMSO. The plate was incubated for 60 minutes at room temperature. The Raf kinase activity reaction was started by the addition of […] per well of 2×ATP diluted in assay buffer. After 3 hours (b-Raf(V600E)) or 1 hour (c-Raf). The reactions were stopped and the phosphorylated product was measured using a rabbit anti-p-MEK (Cell Signaling, #9121) antibody and the Alpha Screen IgG (ProteinA) detection Kit (PerkinElmer #6760617R), by the addition of […] to the well of a mixture of the antibody (1:2000 dilution) and detection beads (1:2000 dilution of both beads) in Stop/bead buffer (25 mM EDTA, 50 mM Tris, pH 7.5, 0.01% Tween20). The additions were carried out under dark conditions to protect the detection beads from light. A lid was placed on top of the plate and incubated for 1 hour at room temperature, after which the luminescence was read on a PerkinElmer Envision instrument. The concentration of each compound for 50% inhibition (IC50) was calculated by non-linear regression using XL Fit data analysis software.

[1] = high throughput solubility assay; type: physicochemical; details: for solubility: buffer solution, thermodynamic from solid
Protocol: Solubility of the compounds of the invention was assessed in a high throughput solubility assay: compounds were received as 10 mM DMSO solutions. The DMSO stock solution was then transferred into a microtiter plate. The DMSO solvent was dried with a solvent evaporator (GeneVac). After the addition of buffer solution (pH 6.8, pH 4.0 or FaSSIF), the plate was sealed and shaken for 16-24 hours at room temperature. The plate was centrifuged for phase separation and the supernatant quantified by a RapidFire 365 High-throughput MS System (Agilant) coupled with a mass spectrometer (Sciex), using a calibration curve constructed with the same DMSO stock solution. Solubility results (μM) are obtained in triplicate.

[2] = c-Raf approximately 4 nM, ATP 1 μM, pre-incubation 60 minutes, reaction 1 hour at room temperature, read-out: C-Raf
[3] = phosphate Example itself, buffer (pH 6.8, pH 4.0 or FaSSIF) not given, 16-24 hours at room temperature

T1 sequence (P04049 whole entry Y340E/Y341E): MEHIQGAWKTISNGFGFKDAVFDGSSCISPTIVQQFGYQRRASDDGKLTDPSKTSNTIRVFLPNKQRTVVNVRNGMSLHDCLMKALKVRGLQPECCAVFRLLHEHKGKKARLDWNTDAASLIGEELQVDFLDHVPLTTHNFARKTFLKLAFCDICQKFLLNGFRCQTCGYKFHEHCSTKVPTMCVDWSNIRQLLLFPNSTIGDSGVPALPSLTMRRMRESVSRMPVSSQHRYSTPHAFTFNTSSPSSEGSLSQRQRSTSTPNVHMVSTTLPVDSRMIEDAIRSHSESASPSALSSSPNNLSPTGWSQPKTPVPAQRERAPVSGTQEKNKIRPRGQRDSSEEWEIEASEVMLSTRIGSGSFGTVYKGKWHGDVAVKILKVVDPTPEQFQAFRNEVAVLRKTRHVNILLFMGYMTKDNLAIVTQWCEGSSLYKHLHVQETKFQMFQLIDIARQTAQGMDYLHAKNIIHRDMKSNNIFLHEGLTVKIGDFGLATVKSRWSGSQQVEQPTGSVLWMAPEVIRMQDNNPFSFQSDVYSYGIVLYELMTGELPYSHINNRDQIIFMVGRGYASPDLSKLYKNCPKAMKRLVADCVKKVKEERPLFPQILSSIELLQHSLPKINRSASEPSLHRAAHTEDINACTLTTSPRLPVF
T1 sequence (P63104 whole entry partner): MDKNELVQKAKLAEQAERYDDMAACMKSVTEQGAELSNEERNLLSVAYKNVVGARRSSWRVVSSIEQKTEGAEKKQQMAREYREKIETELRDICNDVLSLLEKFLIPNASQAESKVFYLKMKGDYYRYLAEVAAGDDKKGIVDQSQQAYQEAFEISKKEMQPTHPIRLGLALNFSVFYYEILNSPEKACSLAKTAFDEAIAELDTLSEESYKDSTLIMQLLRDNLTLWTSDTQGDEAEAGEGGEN

IC50 (C-Raf; read-out: inhibitory efficacy for C-Raf) [nM] | improvement of solubility compared with the corresponding non-phosphate molecule ([1]; 874 μM versus 18 μM) | solubility ([1]; buffer not stated) [µM] | IC50 (C-Raf; [2]) [nM] | solubility [1, 3] [µM] | SMILES
0.1 | greater than 48 fold | 874 |  |  | Cc1ccc(NC(=O)c2ccnc(C(F)(F)F)c2)cc1-c1cc(OCCOP(=O)(O)O)nc(N2CCOCC2)c1 [Example 1, 2-((4-(2-methyl-5-(2-(trifluoromethyl)isonicotinamido)phenyl)-6-morpholinopyridin-2-yl)oxy)ethyl dihydrogen phosphate]
 |  |  | 6 | < 1000 | Cc1ccc(NC(=O)c2cccc(C(F)(F)F)c2)cc1-c1cc(OCCOP(=O)(O)O)nc(N2CCOC[C@H]2C)c1 [Example 2, (R)-2-((4-(2-methyl-5-(3-(trifluoromethyl)benzamido)phenyl)-6-(3-methylmorpholino)pyridin-2-yl)oxy)ethyl dihydrogen phosphate]
 |  |  | 0.024 | 987 | Cc1ccc(NC(=O)c2cc(C(F)(F)F)ccn2)cc1-c1cc(OC[C@@H](O)COP(=O)(O)O)nc(N2CCOCC2)c1 [Example 3, (R)-2-hydroxy-3-((4-(2-methyl-5-(4-(trifluoromethyl)picolinamido)phenyl)-6-morpholinopyridin-2-yl)oxy)propyl dihydrogen phosphate]
 |  |  | 0.7 | 617 | Cc1ncc(NC(=O)c2cccc(C(F)(F)F)c2)cc1-c1cc(OCCOP(=O)(O)O)nc(N2CCOC[C@H]2C)c1 [Example 4, (R)-2-((2-methyl-6′-(3-methylmorpholino)-5-(3-(trifluoromethyl)-benzamido)-[3,4′-bipyridin]-2′-yl)oxy)-ethyl dihydrogen phosphate]
 |  |  | 0.1 | 725 | Cc1ncc(NC(=O)c2cccc(C(F)(F)F)c2)cc1-c1cc(OCCOP(=O)(O)O)nc(N2CCOCC2)c1 [Example 5, 2-((2-methyl-6′-morpholino-5-(3-(trifluoromethyl)benz amido)-[3,4′-bipyridin]-2′-yl)oxy)ethyl dihydrogen phosphate]
 |  |  | 0.3 | 675 | Cc1ccc(NC(=O)c2ccnc(C(C)(F)F)c2)cc1-c1cc(OCCOP(=O)(O)O)nc(N2CCOC[C@H]2C)c1 [Example 6, (R)-2-((4-(5-(2-(1,1-difluoroethyl)isonicotin amido)-2-methylphenyl)-6-(3-methylmorpholino)pyridin-2-yl)oxy)ethyl dihydrogen phosphate]
 |  |  | 0.05 | 124 | Cc1ccc(NC(=O)c2cccc(C(F)(F)F)c2)cc1-c1cc(OCCOP(=O)(O)O)nc(N2CCOCC2)c1 [Example 7, 2-((4-(2-methyl-5-(3-(trifluoromethyl)benzamido)phenyl)-6-morpholinopyridin-2-yl)oxy)ethyl dihydrogen phosphate]
 |  |  | 0.5 | 841 | Cc1ccc(NC(=O)c2ccnc(C(C)(C)F)c2)cc1-c1cc(OCCOP(=O)(O)O)nc(N2CCOCC2)c1 [Example 9, 2-((4-(5-(2-(2-fluoropropan-2-yl)isonicotinamido)-2-methylphenyl)-6-morpholinopyridin-2-yl)oxy)ethyl dihydrogen phosphate]
 |  |  | 0.3 | 635 | Cc1ccc(NC(=O)c2ccnc(C(C)(F)F)c2)cc1-c1cc(OCCOP(=O)(O)O)nc(N2CCOCC2)c1 [Example 10, 2-((4-(5-(2-(1,1-difluoroethyl)isonicotin amido)-2-methylphenyl)-6-morpholinopyridin-2-yl)oxy)ethyl dihydrogen phosphate]
 |  |  | 2 | < 1000 | Cc1ccc(NC(=O)c2ccnc(C(C)(C)F)c2)cc1-c1cc(OCCOP(=O)(O)O)nc(N2CCOC[C@H]2C)c1 [Example 11, (R)-2-((4-(5-(2-(2-fluoropropan-2-yl)isonicotinamido)-2-methylphenyl)-6-(3-methylmorpholino)pyridin-2-yl)oxy)ethyl dihydrogen phosphate]
 |  |  | 2 | 939 | Cc1ccc(NC(=O)c2ccnc(C(F)(F)F)c2)cc1-c1cc(OCCOP(=O)(O)O)nc(N2CCOC[C@H]2C)c1 [Example 12, (R)-2-((4-(2-methyl-5-(2-(trifluoromethyl)-isonicotinamido)phenyl)-6-(3-methyl-morpholino)pyridin-2-yl)oxy)ethyl dihydrogen phosphate]
 |  |  | 0.03 | 792 | Cc1ccc(NC(=O)c2ccnc(C(F)(F)F)c2)cc1-c1cnc(OCCOP(=O)(O)O)c(N2CCOCC2)c1 [Example 13, 2-((5-(2-methyl-5-(2-(trifluoromethyl)isonicotinamido)phenyl)-3-morpholinopyridin-2-yl)oxy)ethyl dihydrogen phosphate]
 |  |  | 0.04 | 897 | Cc1ccc(NC(=O)c2ccnc(C(C)(F)F)c2)cc1-c1cnc(OCCOP(=O)(O)O)c(N2CCOCC2)c1 [Example 14, 2-((5-(5-(2-(1,1-difluoroethyl)isonicotin amido)-2-methylphenyl)-3-morpholinopyridin-2-yl)oxy)ethyl dihydrogen phosphate]
 |  |  | 0.4 | 936 | Cc1ccc(NC(=O)c2ccnc(C(C)(C)F)c2)cc1-c1cnc(OCCOP(=O)(O)O)c(N2CCOCC2)c1 [Example 15, 2-((5-(5-(2-(2-fluoropropan-2-yl)isonicotinamido)-2-methylphenyl)-3-morpholinopyridin-2-yl)oxy)ethyl dihydrogen phosphate]
 |  |  | 1 | < 1000 | Cc1ccc(NC(=O)c2cccc(C(F)(F)F)c2)cc1-c1cnc(OCCOP(=O)(O)O)c(N2CCOCC2)c1 [Example 16, 2-((5-(2-methyl-5-(3-(trifluoromethyl)benzamido)phenyl)-3-morpholinopyridin-2-yl)oxy)ethyl dihydrogen phosphate]
 |  |  | 0.02 | 253 | Cc1ccc(NC(=O)c2cc(C(F)(F)F)ccn2)cc1-c1cc(OCCOP(=O)(O)O)nc(N2CCOCC2)c1 [Example 17, 2-((4-(2-methyl-5-(4-(trifluoromethyl)picolin amido)phenyl)-6-morpholinopyridin-2-yl)oxy)ethyl dihydrogen phosphate]
 |  |  | 0.02 |  | Cc1ncc(NC(=O)c2cccc(C(F)(F)F)c2)cc1-c1cnc(OCCOP(=O)(O)O)c(N2CCOCC2)c1 [Example 18, 2-((2′-methyl-5-morpholino-5′-(3-(trifluoromethyl)benzamido)-[3,3′-bipyridin]-6-yl)oxy)ethyl dihydrogen phosphate]
 |  | 18 (≈ 9.04 µg/mL) |  |  | Cc1ccc(NC(=O)c2ccnc(C(F)(F)F)c2)cc1-c1cc(OCCO)nc(N2CCOCC2)c1 [N-(3-(2-(2-hydroxyethoxy)-6-morpholinopyridin-4-yl)-4-methylphenyl)-2-(trifluoromethyl)isonicotinamide, reference compound]
